Tested on: male NMRI mice
Test: Capsaicin induced hypothermia in mice
Assay type: in vivo, mouse
Details: 3 mg/kg intraperitoneal, 15 min post injection, from 37.1 ± 0.1 °C

Structure (SMILES) | body temperature after capsaicin injection
COc1cc(CNC(=O)CCCC/C=C/C(C)C)ccc1O [capsaicin, reference compound] | 34.0 ± 0.1 °C

Molecular target: T1, human TRPV1 (Homo sapiens, UniProt Q8NER1)
Test: Capsaicin assay
Assay type: cell-based
Details: hTRPV1 in CHO cells

T1 sequence (Q8NER1 whole entry): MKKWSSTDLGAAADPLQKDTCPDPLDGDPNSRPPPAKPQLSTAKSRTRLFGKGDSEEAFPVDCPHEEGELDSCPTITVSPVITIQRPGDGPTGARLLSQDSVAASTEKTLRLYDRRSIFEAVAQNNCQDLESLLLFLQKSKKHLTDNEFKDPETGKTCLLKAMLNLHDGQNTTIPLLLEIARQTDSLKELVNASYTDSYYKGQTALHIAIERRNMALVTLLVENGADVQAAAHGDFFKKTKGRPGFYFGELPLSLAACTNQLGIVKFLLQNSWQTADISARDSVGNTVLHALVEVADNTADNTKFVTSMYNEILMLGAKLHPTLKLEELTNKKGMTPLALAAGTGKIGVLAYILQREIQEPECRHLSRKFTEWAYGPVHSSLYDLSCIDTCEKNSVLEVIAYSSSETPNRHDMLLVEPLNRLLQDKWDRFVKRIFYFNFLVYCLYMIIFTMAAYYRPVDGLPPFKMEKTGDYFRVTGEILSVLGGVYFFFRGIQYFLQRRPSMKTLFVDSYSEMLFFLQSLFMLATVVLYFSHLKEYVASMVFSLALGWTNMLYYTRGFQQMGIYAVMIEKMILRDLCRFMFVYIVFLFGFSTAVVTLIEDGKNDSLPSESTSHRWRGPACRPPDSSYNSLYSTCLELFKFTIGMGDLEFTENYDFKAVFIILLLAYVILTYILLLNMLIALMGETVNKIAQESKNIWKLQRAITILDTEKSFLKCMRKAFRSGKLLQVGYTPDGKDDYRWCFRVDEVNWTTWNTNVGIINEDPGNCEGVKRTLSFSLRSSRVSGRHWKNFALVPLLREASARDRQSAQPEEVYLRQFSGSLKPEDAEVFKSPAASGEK

Structure (SMILES) | hTRPV1 antagonism in words
CC(C(=O)NCc1ccc(C(F)(F)F)nc1)c1ccc(NS(C)(=O)=O)c(F)c1 (stereo not shown) [Compound 12, 2-(3-Fluoro-4-(methylsulfonamido)phenyl)-N-((6-(trifluoromethyl)pyridin-3-yl)methyl)propanamide] | weak antagonist
CC(C(=O)NCc1ccc(C(F)(F)F)nc1Nc1ccc(Cl)cc1)c1ccc(NS(C)(=O)=O)c(F)c1 (stereo not shown) [Compound 19, N-((2-((4-Chlorophenyl)amino)-6-(trifluoromethyl)pyridin-3-yl)methyl)-2-(3-fluoro-4-(methylsulfonamido)phenyl)propanamide] | devoid of activity

Now from value to molecule:

hTRPV1 antagonism in words | Structure (SMILES)
weak antagonist | CC(C(=O)NCc1ccc(C(F)(F)F)nc1N1CCNCC1)c1ccc(NS(C)(=O)=O)c(F)c1 (stereo not shown) [Compound 81, 2-(3-Fluoro-4-(methylsulfonamido)phenyl)-N-((2-(piperazin-1-yl)-6-(trifluoromethyl)pyridin-3-yl)methyl)propanamide]
only weak potency | CC(C(=O)NCc1ccc(C(F)(F)F)nc1N1CCS(=O)(=O)CC1)c1ccc(NS(C)(=O)=O)c(F)c1 (stereo not shown) [Compound 99, N-((2-(1,1-Dioxidothiomorpholino)-6-(trifluoromethyl)pyridin-3-yl)methyl)-2-(3-fluoro-4-(methylsulfonamido)phenyl)propanamide]

Same assay, conditions: hTRPV1 in CHO cells, versus compound 2

fold more potent than parent 2 for capsaicin antagonism | Structure (SMILES)
15 fold | CC(C(=O)NCc1ccc(C(F)(F)F)nc1N1CCOCC1)c1ccc(NS(C)(=O)=O)c(F)c1 (stereo not shown) [Compound 97, 2-(3-Fluoro-4-(methylsulfonamido)phenyl)-N-((2-morpholino-6-(trifluoromethyl)pyridin-3-yl)methyl)propanamide]
46 fold | CC(C(=O)NCc1ccc(C(F)(F)F)nc1N1CCCCC1)c1ccc(NS(C)(=O)=O)c(F)c1 (stereo not shown) [Compound 45, 2-(3-Fluoro-4-(methylsulfonamido)phenyl)-N-((2-(piperidin-1-yl)-6-(trifluoromethyl)pyridin-3-yl)methyl)propanamide]

Same assay, conditions: hTRPV1 in CHO cells, versus compound 3

fold more potent than lead 3 for capsaicin antagonism | Structure (SMILES)
ca. 15 fold | C[C@H](C(=O)NCc1ccc(C(F)(F)F)nc1N1CCCCC1)c1ccc(NS(C)(=O)=O)c(F)c1 [Compound 45S, (S)-2-(3-Fluoro-4-(methylsulfonamido)phenyl)-N-((2-(piperidin-1-yl)-6-(trifluoromethyl)pyridin-3-yl)methyl)propanamide]

Same assay, conditions: versus compound 17

fold increase in potency for CAP compared to phenylamino analogue 17 | Structure (SMILES)
75 fold | CC(C(=O)NCc1ccc(C(F)(F)F)nc1N(C)c1ccccc1)c1ccc(NS(C)(=O)=O)c(F)c1 (stereo not shown) [Compound 32, 2-(3-Fluoro-4-(methylsulfonamido)phenyl)-N-((2-(methyl(phenyl)amino)-6-(trifluoromethyl)pyridin-3-yl)methyl)propanamide]

Molecular target: T1, human TRPV1
Test: pH assay
Assay type: cell-based
Details: read-out: IC50 [pH]; hTRPV1 in CHO cells, activator pH 6.0 to 6.3

Structure (SMILES) | IC50
O=C(/C=C/c1ccc(C(F)(F)F)nc1N1CCCCC1)Nc1ccc2cccnc2c1 [Compound 3, reference compound] | > 10 µM
CC(C(=O)NCc1ccc(C(F)(F)F)nc1Nc1ccc(F)cc1)c1ccc(NS(C)(=O)=O)c(F)c1 (stereo not shown) [Compound 18, 2-(3-Fluoro-4-(methylsulfonamido)phenyl)-N-((2-((4-fluorophenyl)amino)-6-(trifluoromethyl)pyridin-3-yl)methyl)propanamide] | > 10 µM
CC(C)(C)c1ccc(CNC(=S)NCc2ccc(NS(C)(=O)=O)c(F)c2)cc1 [Compound 1, reference compound] | > 10 µM
CC(C(=O)NCc1ccc(C(F)(F)F)nc1NCc1ccncc1)c1ccc(NS(C)(=O)=O)c(F)c1 (stereo not shown) [Compound 26, 2-(3-Fluoro-4-(methylsulfonamido)phenyl)-N-((2-((pyridin-4-ylmethyl)amino)-6-(trifluoromethyl)pyridin-3-yl)methyl)propanamide] | > 10 µM
C[C@H](C(=O)NCc1ccc(C(F)(F)F)nc1N1CC[C@@H](O)C1)c1ccc(NS(C)(=O)=O)c(F)c1 [Compound 38, (S)-2-(3-Fluoro-4-(methylsulfonamido)phenyl)-N-((2-((R)-3-hydroxypyrrolidin-1-yl)-6-(trifluoromethyl)pyridin-3-yl)methyl)propanamide] | > 10 µM
C[C@H](C(=O)NCc1ccc(C(F)(F)F)nc1N1CCC[C@H]1CO)c1ccc(NS(C)(=O)=O)c(F)c1 [Compound 35, (S)-2-(3-Fluoro-4-(methylsulfonamido)phenyl)-N-((2-((S)-2-(hydroxymethyl)pyrrolidin-1-yl)-6-(trifluoromethyl)pyridin-3-yl)methyl)propanamide] | > 10 µM
CC(C(=O)NCc1ccc(C(F)(F)F)nc1NCc1cccnc1)c1ccc(NS(C)(=O)=O)c(F)c1 (stereo not shown) [Compound 25, 2-(3-Fluoro-4-(methylsulfonamido)phenyl)-N-((2-((pyridin-3-ylmethyl)amino)-6-(trifluoromethyl)pyridin-3-yl)methyl)propanamide] | > 10 µM
CC1CCCN1c1nc(C(F)(F)F)ccc1CNC(=O)[C@@H](C)c1ccc(NS(C)(=O)=O)c(F)c1 (stereo partly drawn) [Compound 34, (2S)-2-(3-Fluoro-4-(methylsulfonamido)phenyl)-N-((2-(2-methylpyrrolidin-1-yl)-6-(trifluoromethyl)pyridin-3-yl)methyl)propanamide] | > 10 µM
C[C@H](C(=O)NCc1ccc(C(F)(F)F)nc1N1CCC[C@H]1C(=O)N(C)C)c1ccc(NS(C)(=O)=O)c(F)c1 [Compound 36, (S)-1-(3-(((S)-2-(3-Fluoro-4-(methylsulfonamido)phenyl)propanamido)methyl)-6-(trifluoromethyl)pyridin-2-yl)-N,N-dimethylpyrrolidine-2-carboxamide] | > 10 µM
CC(C(=O)NCc1ccc(C(F)(F)F)nc1NCc1ccccn1)c1ccc(NS(C)(=O)=O)c(F)c1 (stereo not shown) [Compound 24, 2-(3-Fluoro-4-(methylsulfonamido)phenyl)-N-((2-((pyridin-2-ylmethyl)amino)-6-(trifluoromethyl)pyridin-3-yl)methyl)propanamide] | > 10 µM
CC(C(=O)NCc1ccc(C(F)(F)F)nc1)c1ccc(NS(C)(=O)=O)c(F)c1 (stereo not shown) [Compound 12, 2-(3-Fluoro-4-(methylsulfonamido)phenyl)-N-((6-(trifluoromethyl)pyridin-3-yl)methyl)propanamide] | > 10 µM

The remaining lines, values ahead:

IC50 | Structure (SMILES)
> 10 µM | CC(C(=O)NCc1ccc(C(F)(F)F)nc1N1CCC(N2CCCCC2)CC1)c1ccc(NS(C)(=O)=O)c(F)c1 (stereo not shown) [Compound 75, N-((2-([1,4'-Bipiperidin]-1'-yl)-6-(trifluoromethyl)pyridin-3-yl)methyl)-2-(3-fluoro-4-(methylsulfonamido)phenyl)propanamide]
> 10 µM | CC(C(=O)NCc1ccc(C(F)(F)F)nc1N1CCC(N2CCCC2)CC1)c1ccc(NS(C)(=O)=O)c(F)c1 (stereo not shown) [Compound 76, 2-(3-Fluoro-4-(methylsulfonamido)phenyl)-N-((2-(4-(pyrrolidin-1-yl)piperidin-1-yl)-6-(trifluoromethyl)pyridin-3-yl)methyl)propanamide]
> 10 µM | CC(C(=O)NCc1ccc(C(F)(F)F)nc1N1CCN(C)CC1)c1ccc(NS(C)(=O)=O)c(F)c1 (stereo not shown) [Compound 82, 2-(3-Fluoro-4-(methylsulfonamido)phenyl)-N-((2-(4-methylpiperazin-1-yl)-6-(trifluoromethyl)pyridin-3-yl)methyl)propanamide]
> 10 µM | CC1CCCN(c2nc(C(F)(F)F)ccc2CNC(=O)C(C)c2ccc(NS(C)(=O)=O)c(F)c2)C1 (stereo not shown) [Compound 48, 2-(3-Fluoro-4-(methylsulfonamido)phenyl)-N-((2-(3-methylpiperidin-1-yl)-6-(trifluoromethyl)pyridin-3-yl)methyl)propanamide]
> 10 µM | CC(C)OC1CCN(c2nc(C(F)(F)F)ccc2CNC(=O)C(C)c2ccc(NS(C)(=O)=O)c(F)c2)CC1 (stereo not shown) [Compound 70, 2-(3-Fluoro-4-(methylsulfonamido)phenyl)-N-((2-(4-isopropoxypiperidin-1-yl)-6-(trifluoromethyl)pyridin-3-yl)methyl)propanamide]
> 10 µM | CC(C(=O)NCc1ccc(C(F)(F)F)nc1N1CCN(c2ncccc2C(F)(F)F)CC1)c1ccc(NS(C)(=O)=O)c(F)c1 (stereo not shown) [Compound 95, 2-(3-Fluoro-4-(methylsulfonamido)phenyl)-N-((6-(trifluoromethyl)-2-(4-(3-(trifluoromethyl)pyridin-2-yl)piperazin-1-yl)pyridin-3-yl)methyl)propanamide]
> 10 µM | CC(C(=O)NCc1ccc(C(F)(F)F)nc1N1CCCCC1C)c1ccc(NS(C)(=O)=O)c(F)c1 (stereo not shown) [Compound 47, 2-(3-Fluoro-4-(methylsulfonamido)phenyl)-N-((2-(2-methylpiperidin-1-yl)-6-(trifluoromethyl)pyridin-3-yl)methyl)propanamide]
> 10 µM | CC(C(=O)NCc1ccc(C(F)(F)F)nc1N1CCNCC1)c1ccc(NS(C)(=O)=O)c(F)c1 (stereo not shown) [Compound 81, 2-(3-Fluoro-4-(methylsulfonamido)phenyl)-N-((2-(piperazin-1-yl)-6-(trifluoromethyl)pyridin-3-yl)methyl)propanamide]
> 10 µM | CC(C(=O)NCc1ccc(C(F)(F)F)nc1N1CCC(O)CC1)c1ccc(NS(C)(=O)=O)c(F)c1 (stereo not shown) [Compound 65, 2-(3-Fluoro-4-(methylsulfonamido)phenyl)-N-((2-(4-hydroxypiperidin-1-yl)-6-(trifluoromethyl)pyridin-3-yl)methyl)propanamide]
> 10 µM | CC(C(=O)NCc1ccc(C(F)(F)F)nc1N1CCS(=O)(=O)CC1)c1ccc(NS(C)(=O)=O)c(F)c1 (stereo not shown) [Compound 99, N-((2-(1,1-Dioxidothiomorpholino)-6-(trifluoromethyl)pyridin-3-yl)methyl)-2-(3-fluoro-4-(methylsulfonamido)phenyl)propanamide]
> 10 µM | CC(C(=O)NCc1ccc(C(F)(F)F)nc1N1CCN(C2CCCCC2)CC1)c1ccc(NS(C)(=O)=O)c(F)c1 (stereo not shown) [Compound 83, N-((2-(4-Cyclohexylpiperazin-1-yl)-6-(trifluoromethyl)pyridin-3-yl)methyl)-2-(3-fluoro-4-(methylsulfonamido)phenyl)propanamide]
> 10 µM | CC(C(=O)NCc1ccc(C(F)(F)F)nc1N1CCN(c2ccncc2)CC1)c1ccc(NS(C)(=O)=O)c(F)c1 (stereo not shown) [Compound 92, 2-(3-Fluoro-4-(methylsulfonamido)phenyl)-N-((2-(4-(pyridin-4-yl)piperazin-1-yl)-6-(trifluoromethyl)pyridin-3-yl)methyl)propanamide]
> 10 µM | CC(C(=O)NCc1ccc(C(F)(F)F)nc1N1CCC(=O)CC1)c1ccc(NS(C)(=O)=O)c(F)c1 (stereo not shown) [Compound 64, 2-(3-Fluoro-4-(methylsulfonamido)phenyl)-N-((2-(4-oxopiperidin-1-yl)-6-(trifluoromethyl)pyridin-3-yl)methyl)propanamide]

Same assay, conditions: versus compound 17

fold increase in potency for pH compared to phenylamino analogue 17 | Structure (SMILES)
25 fold | CC(C(=O)NCc1ccc(C(F)(F)F)nc1N(C)c1ccccc1)c1ccc(NS(C)(=O)=O)c(F)c1 (stereo not shown) [Compound 32, 2-(3-Fluoro-4-(methylsulfonamido)phenyl)-N-((2-(methyl(phenyl)amino)-6-(trifluoromethyl)pyridin-3-yl)methyl)propanamide]

Reference: paper PMC3469757 (Journal of medicinal chemistry, 2012)
